Holding throughout (format): in vivo, human
Experiment [1] is described as follows: Mock beverage tasting of sweeteners in citric acid buffer and phosphoric acid buffer. The note with it: for Dosage for ~7 Brix SE: estimated concentrations, benchmark 500 ppm mogroside V. An excerpt:
Siamenoside I was separately tasted in citric acid buffer (pH 3.2) and phosphoric acid buffer (pH 2.6) at 500 ppm and compared against an equivalent solution of RebM90 (RebM with at least 90% purity) and various other sweeteners.
Accordingly, the dosage of all other sweeteners was adjusted benchmark 500 ppm mogroside V. Estimated concentrations are presented below.

The nature of experiment [2]: Blind bench evaluation of sweeteners in six beverage matrices, RebM90 as control. To be noted: Lemon Lime Sparkling (70% sugar reduction). As for the experimental part: A blind evaluation of the above-named sweeteners was conducted in six (6) beverage (liquid) matrices, including both sparkling and still matrixes. Of the six beverage matrices, four (4) were calorie reduction matrixes and two (2) were diet matrixes. RebM90 served as control. 7-10 internal team members blindly evaluated the samples.

Experiment [3] is described as follows: Blind bench tasting of lemon-lime flavored carbonated beverages. The note with it: in blends with Reb-M. How it is done:
The ingredients were dissolved in filtered water to constitute a syrup (6.5 times concentrated), then the final beverage was made by weighing the appropriate syrup amount and adding carbonated water using a ratio of 1 part syrup+5.5 parts carbonated water. Target carbonation volume in finished beverages was […] of CO2. For samples with high Reb-M content (#1 and #2) syrup water was heated to about 47° C. to allow Reb-M solubility, then cooled down to ambient temperature before adding the remaining ingredients. Final beverages were filled in 300 ml glass bottles then aged for 3 days at 35° C. before they were cooled and served cold (4° C.).
Four experienced panelists bench tasted the beverages blindly. Each panelist was given warm bottled water and unsalted crackers to eat and rinse the palate between samples. A maximum of 3 samples was tasted at each session to avoid fatigue.

In the case of `C[C@H](CC[C@@H](O[C@@H]1O[C@H](CO[C@@H]2O[C@H](CO)[C@@H](O)[C@H](O)[C@H]2O)[C@@H](O)[C@H](O)[C@H]1O[C@@H]1O[C@H](CO)[C@@H](O)[C@H](O)[C@H]1O)C(C)(C)O)[C@H]1CC[C@@]2(C)[C@@H]3CC=C4[C@@H](CC[C@H](O[C@@H]5O[C@H](CO)[C@@H](O[C@@H]6O[C@H](CO)[C@@H](O)[C@H](O)[C@H]6O)[C@H](O)[C@H]5O)C4(C)C)[C@]3(C)[C@H](O)C[C@]12C` [Isomogroside V], in experiment [1], the “Dosage for ~7 Brix SE” value is on record as 270 ppm. In addition, the “Comments: less sweet” value in experiment [2] is reported as “less sweet (−1.5 BE), mogroside”. In the case of `C[C@H](CC[C@@H](O[C@@H]1O[C@H](CO[C@@H]2O[C@H](CO)[C@@H](O)[C@H](O)[C@H]2O)[C@@H](O)[C@H](O)[C@H]1O[C@@H]1O[C@H](CO)[C@@H](O)[C@H](O)[C@H]1O)C(C)(C)O)[C@H]1CC[C@@]2(C)[C@@H]3CC=C4[C@@H](CC[C@H](O[C@@H]5O[C@H](CO)[C@@H](O)[C@H](O)[C@H]5O)C4(C)C)[C@]3(C)[C@H](O)C[C@]12C` [Siamenoside I], the “Dosage for ~7 Brix SE” value in experiment [1] is given as 350 ppm. Also, the maximum sweetness intensity in experiment [3] is 10 Brix equivalent. As to `C[C@H](CC[C@@H](O[C@@H]1O[C@H](CO)[C@@H](O)[C@H](O)[C@H]1O[C@@H]1O[C@H](CO)[C@@H](O)[C@H](O)[C@H]1O)C(C)(C)O)[C@H]1CC[C@@]2(C)[C@@H]3CC=C4[C@@H](CC[C@H](O[C@@H]5O[C@H](CO)[C@@H](O)[C@H](O)[C@H]5O)C4(C)C)[C@]3(C)[C@H](O)C[C@]12C` [Mogroside IIIe], the “Dosage for ~7 Brix SE” value in experiment [1] is reported as 350 ppm.

As for `C[C@H](CC[C@@H](O[C@@H]1O[C@H](CO)[C@@H](O)[C@H](O)[C@H]1O[C@@H]1O[C@H](CO)[C@@H](O)[C@H](O)[C@H]1O)C(C)(C)O)[C@H]1CC[C@@]2(C)[C@H]3CC=C4[C@@H](CC[C@H](O[C@@H]5O[C@H](CO[C@@H]6O[C@H](CO)[C@@H](O)[C@H](O)[C@H]6O)[C@@H](O)[C@H](O)[C@H]5O)C4(C)C)[C@]3(C)[C@H](O)C[C@]12C` [Mogroside IV], the “Dosage for ~7 Brix SE” value in experiment [1] is reported as 435 ppm. Consider `C[C@H](CC[C@@H](O[C@@H]1O[C@H](CO[C@@H]2O[C@H](CO)[C@@H](O)[C@H](O)[C@H]2O)[C@@H](O)[C@H](O)[C@H]1O[C@@H]1O[C@H](CO)[C@@H](O)[C@H](O)[C@H]1O)C(C)(C)O)[C@H]1CC[C@@]2(C)[C@@H]3CC=C4[C@@H](CC[C@H](O[C@@H]5O[C@H](CO[C@@H]6O[C@H](CO)[C@@H](O)[C@H](O)[C@H]6O)[C@@H](O)[C@H](O)[C@H]5O)C4(C)C)[C@]3(C)[C@H](O)C[C@]12C` [Mogroside V], for which the “Brix SE” value in experiment [1] (500 ppm) was “approximately 7 Brix SE”. In experiment [1] (500 ppm, citric acid buffer pH 3.2 and phosphoric acid buffer pH 2.6), the “relative sweetness of solutions” value is listed as “the least sweet”. The “Dosage for ~7 Brix SE” value in experiment [1] is reported as 500 ppm. On to `C=C1C[C@@]23CC[C@H]4[C@@](C)(CCC[C@@]4(C)C(=O)O[C@@H]4O[C@H](CO)[C@@H](O)[C@H](O[C@@H]5O[C@H](CO)[C@@H](O)[C@H](O)[C@H]5O)[C@H]4O[C@@H]4O[C@@H](C)[C@H](O)[C@@H](O)[C@H]4O)[C@@H]2CC[C@]1(O[C@@H]1O[C@H](CO)[C@@H](O)[C@H](O[C@@H]2O[C@H](CO)[C@@H](O)[C@H](O)[C@H]2O)[C@H]1O[C@@H]1O[C@H](CO)[C@@H](O)[C@H](O)[C@H]1O)C3` [Rebaudioside N], for which, in experiment [1], the “Dosage for ~7 Brix SE” value is listed as 360 ppm.

The record behind these values is patent publication US20230284660A1, “Siamenoside I Sweetened Compositions and Uses of the Same” (The Coca-Cola Company, priority 2017, published 2023).
